This note sets out measurements from EP0115820A2, “Cephalosporin derivatives and process for their preparation” (Kaken Pharmaceutical Co., Ltd., priority 1983, dated 1984).

The structures appear in SMILES notation. Values after ≈ are worked out from the molar mass of the structure shown. Where two headings read alike, the source gives them in different places.

Test in all cases: Minimum inhibitory concentration (MIC)
What all share (type): cell-based

The subject of experiment [1] is Escherichia coli NIHJ JC-2. An excerpt:
(§1) The cephalosporin derivatives of the present invention are novel substances, and the antimicrobial activities of their sodium salts are shown by the minimum inhibitory concentrations (MIC, µg/ml) in Table 1, as compared with a typical known cephalosporin compound.

Experiment [2] concerns Klebsiella pneumoniae No. 42.
Excerpt: as §1

In the next experiment the test system is Proteus vulgaris GN-76.
Excerpt: as §1

Experiment [3] concerns Pseudomonas aeruginosa E-2.
Excerpt: as §1

In experiment [4] the test system is Pseudomonas aeruginosa K-13.
Excerpt: as §1

The subject of experiment [5] is Pseudomonas aeruginosa Y-1.
Excerpt: as §1

In experiment [6] the test system is Serratia marcescens No. 16-2.
Excerpt: as §1

For experiment [7], the system named is Staphylococcus aureus 209 P JC-1.
Excerpt: as §1

The mark [8] stands for this setting: NIHJJC2, Escherichia coli NIHJ JC-2, bacterial suspension 10^6 cells/ml, sodium salts tested, read-out: Minimum inhibitory concentration.
[9] abbreviates: Klebsiella pneumoniae No. 42, bacterial suspension 10^6 cells/ml, sodium salts tested, read-out: Minimum inhibitory concentration.
[10] abbreviates: GN76, Proteus vulgaris GN-76, bacterial suspension 10^6 cells/ml, sodium salts tested, read-out: Minimum inhibitory concentration.
Setting [11] is: E2, Pseudomonas aeruginosa E-2, bacterial suspension 10^6 cells/ml, sodium salts tested, read-out: Minimum inhibitory concentration.
Setting [12] is: K13, Pseudomonas aeruginosa K-13, bacterial suspension 10^6 cells/ml, sodium salts tested, read-out: Minimum inhibitory concentration.
Setting [13] is: Y1, Pseudomonas aeruginosa Y-1, bacterial suspension 10^6 cells/ml, sodium salts tested, read-out: Minimum inhibitory concentration.
The mark [14] stands for this setting: NO.162, Serratia marcescens No. 16-2, bacterial suspension 10^6 cells/ml, sodium salts tested, read-out: Minimum inhibitory concentration.
[15] abbreviates: 209PJC1, Staphylococcus aureus 209 P JC-1, bacterial suspension 10^6 cells/ml, sodium salts tested, read-out: Minimum inhibitory concentration.

As to `CC(=O)OCC1=C(C(=O)O)N2C(=O)[C@@H](NC(=O)C(NC(=O)c3cccc(OC(C)=O)c3OC(C)=O)c3csc(N)n3)[C@H]2SC1` (mixture of isomers) [Example 14, 7β-[DL-2-(2,3-diacetoxybenzoylamino)-2-(2-aminothiazol-4-yl)acetamido]cephalosporic acid], the MIC in experiment [1] (setting [8]) was found to be 1.56 µg/mL; in experiment [2] (setting [9]), 0.39 µg/mL; in the experiment with Proteus vulgaris GN-76 (setting [10]), 0.78 µg/mL; in experiment [3] (setting [11]) it was 0.39 µg/mL; in experiment [4] (setting [12]), 0.39 µg/mL; in experiment [5] (setting [13]), 0.2 µg/mL. For the same compound, the MIC in experiment [6] (setting [14]) is 12.5 µg/mL; in experiment [7] (setting [15]), 3.12 µg/mL.
In the case of `CC(=O)OCC1=C(C(=O)O)N2C(=O)[C@@H](NC(=O)C(NC(=O)c3ccccc3OC(C)=O)c3csc(N)n3)[C@H]2SC1` (mixture of isomers) [Example 15, 7β-[DL-2-(2-acetoxybenzoylamino)-2-(2-aminothiazol-4-yl)acetamido]cephalosporic acid], the MIC in experiment [1] (setting [8]) is 1.56 µg/mL; in experiment [2] (setting [9]) it was 6.25 µg/mL; in the experiment on Proteus vulgaris GN-76 (setting [10]), 6.25 µg/mL; in experiment [3] (setting [11]) it was 25 µg/mL; in experiment [4] (setting [12]), 25 µg/mL; in experiment [5] (setting [13]) it was 50 µg/mL. Also, the MIC was 200 µg/mL in experiment [6] (setting [14]) and 0.39 µg/mL in experiment [7] (setting [15]).
As to `CC(=O)OCC1=C(C(=O)O)N2C(=O)[C@@H](NC(=O)C(NC(=O)c3cccc(OC(C)=O)c3)c3csc(N)n3)[C@H]2SC1` (mixture of isomers) [Example 16, 7β-[DL-2-(3-acetoxybenzoylamino)-2-(2-aminothiazol-4-yl)acetamidolcephalosporic acid], the MIC in experiment [1] (setting [8]) was 1.56 µg/mL; in experiment [2] (setting [9]) it was 3.12 µg/mL; in the experiment with Proteus vulgaris GN-76 (setting [10]), 6.25 µg/mL; in experiment [3] (setting [11]), 200 µg/mL; in experiment [4] (setting [12]) it was 200 µg/mL; in experiment [5] (setting [13]) it was > 200 µg/mL. Besides, the MIC in experiment [6] (setting [14]) was > 200 µg/mL; in experiment [7] (setting [15]), 0.39 µg/mL.
For `CC(=O)OCC1=C(C(=O)O)N2C(=O)[C@@H](NC(=O)C(NC(=O)c3ccc(OC(C)=O)cc3)c3csc(N)n3)[C@H]2SC1` (mixture of isomers) [Example 17, 7β-[DL-2-(4-acetoxybenzoylamino)-2-(2-aminothiazol-4-yl)acetamido]cephalosporic acid], the MIC in experiment [1] (setting [8]) amounted to 0.78 µg/mL; in experiment [2] (setting [9]) it was 3.12 µg/mL; in the experiment with Proteus vulgaris GN-76 (setting [10]), 6.25 µg/mL; in experiment [3] (setting [11]), 100 µg/mL; in experiment [4] (setting [12]), 100 µg/mL; in experiment [5] (setting [13]), 200 µg/mL. The results for the MIC in experiment [6] (setting [14]) and in experiment [7] (setting [15]) were > 200 µg/mL and 0.2 µg/mL, respectively.
Turning to `CC(=O)OCC1=C(C(=O)O)N2C(=O)[C@@H](NC(=O)C(NC(=O)c3cc(OC(C)=O)c(OC(C)=O)c(OC(C)=O)c3)c3csc(N)n3)[C@H]2SC1` (mixture of isomers) [Example 18, 7β-[DL-2-(3,4,5-triacetoxybenzoylamino)-2-(2-aminothiazol-4-yl)acetamido]cephalosporic acid], the MIC in experiment [1] (setting [8]) was found to be 0.39 µg/mL; in experiment [2] (setting [9]) it was 0.1 µg/mL; in the experiment with Proteus vulgaris GN-76 (setting [10]) it was 0.78 µg/mL; in experiment [3] (setting [11]) it was 0.2 µg/mL; in experiment [4] (setting [12]) it was 0.78 µg/mL; in experiment [5] (setting [13]), 0.78 µg/mL. The MIC in experiment [6] (setting [14]) is 3.12 µg/mL; in experiment [7] (setting [15]), 1.56 µg/mL.
Take `CCOC(=O)Oc1ccc(C(=O)NC(C(=O)N[C@@H]2C(=O)N3C(C(=O)O)=C(COC(C)=O)CS[C@H]23)c2csc(N)n2)cc1OC(=O)OCC` (mixture of isomers) [Example 19, 7β-[DL-2-(3,4-diethoxycarbonyloxy-benzoylamino)-2-(2-aminothiazol-4-yl)acetamido]-cephalosporic acid]: the MIC in experiment [1] (setting [8]) stood at 0.39 µg/mL; in experiment [2] (setting [9]), 0.05 µg/mL; with Proteus vulgaris GN-76 (setting [10]) it was 0.39 µg/mL; in experiment [3] (setting [11]), 0.2 µg/mL; in experiment [4] (setting [12]), 0.2 µg/mL; in experiment [5] (setting [13]), 0.05 µg/mL. For the same compound, the results for the MIC in experiment [6] (setting [14]) and in experiment [7] (setting [15]) were 6.25 µg/mL and 0.39 µg/mL, respectively.
For `CC(=O)OCC1=C(C(=O)O)N2C(=O)[C@@H](NC(=O)C(NC(=O)c3ccc(O)c(O)c3)c3csc(N)n3)[C@H]2SC1` (mixture of isomers) [Example 20, 7β-[DL-2-(3,4-dihydroxybenzoylamino)-2-(2-aminothiazol-4-yl)acetamido]cephalosporic acid], the MIC was 0.39 µg/mL in experiment [1] (setting [8]); 0.05 µg/mL in experiment [2] (setting [9]); 0.2 µg/mL in the experiment with Proteus vulgaris GN-76 (setting [10]); 0.1 µg/mL in experiment [3] (setting [11]); 0.2 µg/mL in experiment [4] (setting [12]); 0.05 µg/mL in experiment [5] (setting [13]). The MIC was found to be 6.25 µg/mL in experiment [6] (setting [14]) and 0.39 µg/mL in experiment [7] (setting [15]).
Consider `CC(=O)OCC1=C(C(=O)O)N2C(=O)[C@@H](NC(=O)C(NC(=O)c3cccc(O)c3O)c3csc(N)n3)[C@H]2SC1` (mixture of isomers) [Example 21, 7β-[DL-2-(2,3-dihydroxybenzoylamino)-2-(2-aminothiazol-4-yl)acetamido]cephalosporic acid], for which the MIC stood at 1.56 µg/mL in experiment [1] (setting [8]); 0.39 µg/mL in experiment [2] (setting [9]); 1.56 µg/mL in the experiment with Proteus vulgaris GN-76 (setting [10]); 0.39 µg/mL in experiment [3] (setting [11]); 0.78 µg/mL in experiment [4] (setting [12]); 3.12 µg/mL in experiment [5] (setting [13]). In addition, the MIC is > 200 µg/mL in experiment [6] (setting [14]) and 3.12 µg/mL in experiment [7] (setting [15]).
For `CC(=O)OCC1=C(C(=O)O)N2C(=O)[C@@H](NC(=O)C(NC(=O)c3ccccc3O)c3csc(N)n3)[C@H]2SC1` (mixture of isomers) [Example 22, 7β-[DL-2-(2-hydroxybenzoylamino)-2-(2-aminothiazol-4-yl)acetamido]cephalosporic acid], the MIC was determined as 3.12 µg/mL in experiment [1] (setting [8]); 3.12 µg/mL in experiment [2] (setting [9]); 6.25 µg/mL with Proteus vulgaris GN-76 (setting [10]); 50 µg/mL in experiment [3] (setting [11]); 25 µg/mL in experiment [4] (setting [12]); 100 µg/mL in experiment [5] (setting [13]). Moreover, the figures for the MIC in experiment [6] (setting [14]) and in experiment [7] (setting [15]) were > 200 µg/mL and 0.39 µg/mL, respectively.
Take `CC(=O)OCC1=C(C(=O)O)N2C(=O)[C@@H](NC(=O)C(NC(=O)c3cccc(O)c3)c3csc(N)n3)[C@H]2SC1` (mixture of isomers) [Example 23, 73-[DL-2-(3-hydroxybenzoylamino)-2-(2-aminothiazol-4-yl)acetamidolcephalosporic acid]: the MIC in experiment [1] (setting [8]) is 6.25 µg/mL; in experiment [2] (setting [9]), 12.5 µg/mL; in the experiment on Proteus vulgaris GN-76 (setting [10]), 25 µg/mL; in experiment [3] (setting [11]), > 200 µg/mL; in experiment [4] (setting [12]), > 200 µg/mL; in experiment [5] (setting [13]), > 200 µg/mL. The MIC in experiment [6] (setting [14]) is > 200 µg/mL; in experiment [7] (setting [15]), 0.39 µg/mL.
Regarding `CC(=O)OCC1=C(C(=O)O)N2C(=O)[C@@H](NC(=O)C(NC(=O)c3ccc(O)cc3)c3csc(N)n3)[C@H]2SC1` (mixture of isomers) [Example 24, 7β-[DL-2-(4-hydroxybenzoylamino)-2-(2-aminothiazol-4-yl)acetamido]cephalosporic acid], the MIC in experiment [1] (setting [8]) was determined as 3.12 µg/mL; in experiment [2] (setting [9]), 6.25 µg/mL; with Proteus vulgaris GN-76 (setting [10]), 25 µg/mL; in experiment [3] (setting [11]) it was 25 µg/mL; in experiment [4] (setting [12]), 25 µg/mL; in experiment [5] (setting [13]), 50 µg/mL. Moreover, the MIC in experiment [6] (setting [14]) was > 200 µg/mL; in experiment [7] (setting [15]) it was 0.39 µg/mL.
On to `CC(=O)OCC1=C(C(=O)O)N2C(=O)[C@@H](NC(=O)C(NC(=O)c3cc(O)c(O)c(O)c3)c3csc(N)n3)[C@H]2SC1` (mixture of isomers) [Example 25, 7β-[DL-2-(3,4,5-trihydroxy-benzoylamino)-2-(2-aminothiazol-4-yl)acetamido]-cephalosporic acid], for which the MIC was 0.2 µg/mL in experiment [1] (setting [8]); 0.1 µg/mL in experiment [2] (setting [9]); 1.56 µg/mL in the experiment with Proteus vulgaris GN-76 (setting [10]); 0.2 µg/mL in experiment [3] (setting [11]); 0.39 µg/mL in experiment [4] (setting [12]); 0.1 µg/mL in experiment [5] (setting [13]). For the same compound, the MIC was > 100 µg/mL in experiment [6] (setting [14]) and 0.2 µg/mL in experiment [7] (setting [15]).
In the case of `CO[C@@]1(NC(=O)CSCC#N)C(=O)N2C(C(=O)O)=C(CSc3nnnn3C)CS[C@@H]21` [Cefmetazole, reference compound], the MIC in experiment [1] (Escherichia coli, NIHJJC2, read-out: Minimum inhibitory concentration) came out at 0.78 µg/mL (≈ 1.65 µM); in experiment [2] (Klebsiella pneumoniae, NO.42, read-out: Minimum inhibitory concentration), 1.56 µg/mL (≈ 3.31 µM); with Proteus vulgaris GN-76 (Proteus vulgaris, GN76, read-out: Minimum inhibitory concentration) it was 3.12 µg/mL (≈ 6.62 µM); in experiment [3] (Pseudomonas aeruginosa, E2, read-out: Minimum inhibitory concentration), 3200 µg/mL (≈ 6790 µM); in experiment [4] (Pseudomonas aeruginosa, K13, read-out: Minimum inhibitory concentration), 3200 µg/mL (≈ 6790 µM); in experiment [5] (Pseudomonas aeruginosa, Y1, read-out: Minimum inhibitory concentration) it was 3200 µg/mL (≈ 6790 µM). Further, the MIC in experiment [6] (Serratia marcescens, NO.162, read-out: Minimum inhibitory concentration) is > 50 µg/mL; in experiment [7] (Staphylococcus aureus, 209PJC1, read-out: Minimum inhibitory concentration), 0.39 µg/mL (≈ 0.827 µM).
